Measured values taken from paper PMC7948796, “Mammalian-like type II glutaminyl cyclases in Porphyromonas gingivalis and other oral pathogenic bacteria as targets for treatment of periodontitis” (The Journal of Biological Chemistry, 2021).
Where two headings read alike, the source gives them in different places.

How the values were obtained:
PiQC [1] = target: T1, PiQC (Prevotella intermedia, UniProt A0AAD1F671); type: biochemical; settings: for Effect of chelator on QC activity: PiQC, Fig. S2
Method: (§1) To test whether QC is a metalloenzyme, the turnover of H-Gln-AMC at a concentration corresponding to 0.5 KM was investigated in the presence of the metal chelators 1,10- phenanthroline, dipicolinic acid, and EDTA. The fluorometric activity assay was performed as described above, except for the presence of 1% (v/v) DMSO in the case of 1,10-phenanthroline or dipicolinic acid. Finally, the residual QC activity was determined at steady state, whereas QC without chelators and ± 1% DMSO served as positive control.
(§2) 250 µM H-Gln-AMC and increasing chelator
(§3) concentrations were used to investigate the inhibitory effect on QC activity. Bars indicate residual
(§4) QC activity following initiation of the reaction by adding 5 nM QC (red: PgQC; green: PiQC; blue:
(§5) TfQC). All measurements were performed at 30°C as described in the text.
(§6) (1 picture or pasted object on this page, not shown here)

TfQC [2] = target: T2, TfQC (Tannerella forsythia, UniProt G8UMP8); type: biochemical; settings: Fig. S2
T2 sequence (G8UMP8 entry or part of it): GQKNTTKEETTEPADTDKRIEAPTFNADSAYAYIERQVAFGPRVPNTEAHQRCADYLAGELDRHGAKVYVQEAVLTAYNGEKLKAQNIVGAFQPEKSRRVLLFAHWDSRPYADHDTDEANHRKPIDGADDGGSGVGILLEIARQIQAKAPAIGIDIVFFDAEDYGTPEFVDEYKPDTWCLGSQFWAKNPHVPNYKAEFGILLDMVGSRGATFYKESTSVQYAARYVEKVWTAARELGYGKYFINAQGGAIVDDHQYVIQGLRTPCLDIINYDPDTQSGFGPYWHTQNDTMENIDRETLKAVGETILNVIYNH
Method: as §1, §2, §3, §4, §5, §6

PgQC [3] = target: T3, PgQC (Porphyromonas gingivalis, UniProt Q7MT37); test: Residual QC activity in presence of metal chelators; type: biochemical; parameters: His-tag (pET28a, thrombin-cleavable) (N, cleaved yes); made in house; host or cells: E. coli Rosetta(DE3)pLysS; settings: Fig. S2
Method: as §1
Supplementary Figure 2: Inhibition of bacteroidal QC activity by metal chelators: ( A) ED TA ,
(B) dipicolinic acid and (C) 1,10-phenantroline. 250 µM H-Gln-AMC and increasing chelator
as §3, §4, §5, §6

PgQC [4] = target: T3, PgQC; test: QC inhibition assay with fluorogenic substrate H-Gln-AMC (Ki); type: biochemical; parameters: His-tag (pET28a, thrombin-cleavable) (N, cleaved yes); made in house; host or cells: E. coli Rosetta(DE3)pLysS
Method: (§7) Inhibitory constants were determined using concentrations of H-Gln-AMC varying from 1/4 KM to 2 KM and a final concentration of bacterial QC in a range between 25 nM and 50 nM. Progress curves were fitted to the general equation for competitive inhibition.

PiQC [5] = target: T1, PiQC; test: as above; type: biochemical; settings: 1% DMSO, pH 8.0, 30 °C
Method: as §7

TfQC [6] = target: T2, TfQC; test: as above; type: biochemical; settings: 1% DMSO, pH 8.0, 30 °C
Method: as §7

HsQC [7] = target: T4, HsQC (Homo sapiens, UniProt Q16769); test: as above; type: biochemical
T4 sequence (Q16769 29-361): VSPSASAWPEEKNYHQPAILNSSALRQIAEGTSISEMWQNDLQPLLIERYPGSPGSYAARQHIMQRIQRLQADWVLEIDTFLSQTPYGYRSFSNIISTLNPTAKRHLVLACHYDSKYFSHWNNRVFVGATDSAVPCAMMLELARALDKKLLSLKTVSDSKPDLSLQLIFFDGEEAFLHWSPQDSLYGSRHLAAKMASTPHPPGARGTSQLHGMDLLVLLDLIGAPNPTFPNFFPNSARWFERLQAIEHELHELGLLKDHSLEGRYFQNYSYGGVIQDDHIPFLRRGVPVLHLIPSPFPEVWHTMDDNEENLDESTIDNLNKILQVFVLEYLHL

PiQC [8] = target: T1, PiQC; type: biochemical
Method: (§8) QC activity was evaluated using the fluorogenic substrate H-Gln-AMC as described previously ([43]). Measurements were performed at different concentrations of fluorogenic substrate and 0.5 U pyroglutaminyl aminopeptidase in 50 mM Tris-HCl, 50 mM NaCl at pH 8.0. After 10 min incubation time at 30 °C, the reaction was initiated by addition of approximately 50 nM QC to a final volume of 125 μl reaction mixture. QC activity was calculated from a standard curve of the fluorophore AMC at assay conditions using excitation/emission wavelengths of 380/460 nm. All measurements were carried out in 96-well microtiter plates (Fisher Scientific) at 30 °C using the FluoStar Optima (BMG Labtech). All kinetic data were evaluated using GraFit software (Version 7, Erithacus software Ltd).
(§9) Supplementary Figure 1: QC activity measurements for bacteroidal QC cataly zed cyclization of the fluorogenic substrate H-Gln-AMC. (A) v/S-characteristics and Lineweaver-Burk plots for PgQC (red circles), TfQC (green triangles) and PiQC (blue squares). QC activity measurements were performed in 50 mM Tris-HCl, pH 8.0 and 50 mM NaCl at 30°C. Kinetic data were evaluated using GraFit software (Version 7, Erithacus software Ltd., Horley, UK). (B) pH dependence of PgQC, TfQC, and PiQC activities; colors and sy mbols as in (A). The specificity constants kcat/KM were determined under first-order rate law conditions with substrate concentrations of 1/10 KM.
(§10) Measurements were carried out at 30°C in buffer consisting of 0.1 M Tris-HCl, 0.05 MES, 0.05 mM acetic acid and 0.05 mM NaCl.. […]

PgQC [9] = target: T3, PgQC
Method: as §8, §9, §10

TfQC [10] = target: T2, TfQC; test: Kinetics of cyclization of H-Gln-AMC; type: biochemical
Method: as §8, §9, §10

HsQC [11] = target: T4, HsQC; parameters: method as in Schilling et al. ([44]); settings: ref Schilling et al. ([44]); cited from earlier work
[12] = substrate: CC[C@H](C)[C@H](NC(=O)[C@@H](NC(=O)[C@H](CC(=O)O)NC(=O)[C@@H](N)CCC(N)=O)C(C)C)C(=O)N[C@@H](CCCNC(=N)N)C(=O)N1CCC[C@H]1C(=O)N[C@@H](Cc1c[nH]c2ccccc12)C(=O)N[C@@H](CO)C(=O)N[C@@H](CC(C)C)C(=O)N[C@@H](CCC(N)=O)C(N)=O; test: Conversion of N-termini of putative natural substrates, spectrophotometric assay with glutamate dehydrogenase; type: biochemical, Porphyromonas gingivalis; settings: other: PgQC; determined under first-order-rate law conditions, [S] << KM; pH 8.0; 30.0 °C
Method: (§11) For evaluation of possible physiological substrates, PgQC activity was determined spectrophotometrically by using glutamate dehydrogenase as auxiliary enzyme described previously ([44]). […] After 10-min incubation time at 30 °C, reactions were initiated by addition of approximately 115 nM PgQC to a final volume of 250 μl reaction mixture. QC turnover of substrates was monitored by a decrease of absorption at 340 nm and enzyme activity was determined from a standard curve of NH4Cl at assay conditions.

[13] = substrate: CC(C)[C@H](NC(=O)[C@H](CCC(N)=O)NC(=O)[C@@H](N)CCC(N)=O)C(=O)N[C@@H](C)C(=O)N[C@@H](C)C(=O)N[C@@H](C)C(=O)N[C@@H](CC(=O)O)C(=O)N1CCC[C@H]1C(=O)N[C@@H](CO)C(=O)N1CCC[C@H]1C(N)=O; test: as above; type: biochemical, Porphyromonas gingivalis; settings: other: PgQC; determined under first-order-rate law conditions, [S] << KM; pH 8.0; 30.0 °C
Method: as §11

[14] = substrate: CC(C)[C@H](NC(=O)[C@H](CO)NC(=O)[C@H](C)NC(=O)[C@H](CC(N)=O)NC(=O)[C@H](CO)NC(=O)[C@H](CCC(=O)O)NC(=O)[C@@H](N)CCC(N)=O)C(=O)N[C@@H](CCCNC(=N)N)C(=O)N1CCC[C@H]1C(=O)N[C@@H](CO)C(N)=O; test: as above; type: biochemical, Porphyromonas gingivalis; settings: other: PgQC; determined under first-order-rate law conditions, [S] << KM; pH 8.0; 30.0 °C
Method: as §11

[15] = substrate: CC[C@H](C)[C@H](NC(=O)[C@H](CO)NC(=O)[C@H](CC(=O)O)NC(=O)[C@@H]1CCCN1C(=O)[C@@H](NC(=O)[C@@H](NC(=O)[C@H](CO)NC(=O)[C@@H](N)CCC(N)=O)C(C)C)C(C)C)C(=O)NCC(=O)N[C@@H](CCCNC(=N)N)C(N)=O; test: as above; type: biochemical, Porphyromonas gingivalis; settings: other: PgQC, pH 8.0, 30 °C
Method: as §11

[16] = substrate: C[C@H](NC(=O)[C@H](CCC(=O)O)NC(=O)[C@H](Cc1ccc(O)cc1)NC(=O)[C@@H](NC(=O)[C@H](CCCNC(=N)N)NC(=O)[C@H](CC(N)=O)NC(=O)[C@H](CCCNC(=N)N)NC(=O)[C@H](CO)NC(=O)[C@@H](N)CCC(N)=O)[C@@H](C)O)C(=O)N[C@@H](Cc1ccc(O)cc1)C(N)=O; test: as above; type: biochemical, Porphyromonas gingivalis; settings: other: PgQC, pH 8.0, 30 °C
Method: as §11

[17] = H-Gln-AMC substrate, 1% DMSO, pH 8.0, 30 °C, read-out: Inhibition of QC (Ki) PgQC

T1 sequence (A0AAD1F671 24-340 limits assumed): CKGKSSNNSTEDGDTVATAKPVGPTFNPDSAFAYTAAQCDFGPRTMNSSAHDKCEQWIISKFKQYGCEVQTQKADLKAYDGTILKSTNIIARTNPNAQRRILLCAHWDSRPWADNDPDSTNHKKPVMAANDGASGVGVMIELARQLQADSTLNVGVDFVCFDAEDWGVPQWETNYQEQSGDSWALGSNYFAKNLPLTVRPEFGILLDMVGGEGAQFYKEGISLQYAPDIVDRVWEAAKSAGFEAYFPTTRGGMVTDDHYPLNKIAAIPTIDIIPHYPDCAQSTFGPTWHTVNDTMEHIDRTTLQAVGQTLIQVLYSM

For `c1cnc2c(c1)ccc1cccnc12` [1,10-phenanthroline], the “Sensitivity of PiQC to chelator” value (PiQC [1]; PiQC compared with other bacteroidal QCs) was “particularly sensitive”, the “Effect of chelator on QC activity” value (PiQC [1]) was “strong inhibitory activity” and the “Effect of chelator on QC activity” value (TfQC [2]) was “strong inhibitory activity”. The “Effect of chelator on QC activity” value (PgQC [3]) was “strong inhibitory activity”.

For `c1ccc(Cn2ccnc2)cc1` [1-Benzylimidazol, 1-benzylimidazole], the “Mode of inhibition of PgQC” value (PgQC [4]; Fig. S3) was “competitive manner”, the Ki (PgQC [4]; [17]) was 10.4 ± 0.3 µM and the Ki (PgQC [4]; stated in text for the bacteroidal QCs in general, read-out: Estimated Ki, highest efficacy) was ~10 µM. For the same molecule, the Ki (PiQC [5]) was 13.5 ± 2.2 µM, the Ki (TfQC [6]) was 6.45 ± 0.33 µM and the Ki (HsQC [7]) was 16.8 ± 3.5 µM.

In the case of `c1ccc2[nH]cnc2c1` [Benzimidazole, benzimidazole], the Ki (PgQC [4]; [17]) is reported as 32.1 ± 1.4 µM, the Ki (PiQC [5]) is reported as 85.5 ± 4.7 µM and the Ki (TfQC [6]) is reported as 170 ± 1 µM. The Ki (HsQC [7]) was 318 ± 23 µM.

With `O=C(O)CN(CCN(CC(=O)O)CC(=O)O)CC(=O)O` [EDTA] the “Effect of chelator on QC activity” value (PiQC [1]) was “little influence”, the “Effect of chelator on QC activity” value (TfQC [2]) was “little influence” and the “Effect of chelator on QC activity” value (PgQC [3]) was “little influence”.

In the case of `Cc1cc(=O)oc2cc(NC(=O)[C@@H](N)CCC(N)=O)ccc12` [H-Gln-AMC], the “specificity constant kcat/KM relative to that of HsQC” value (PiQC [8]) is reported as ~13%, the Km (PiQC [8]; pH 8.0, 30 °C) is reported as 645 ± 7 µM and the kcat (PiQC [8]; pH 8.0, 30 °C) is reported as 8.51 ± 0.37 s⁻¹. The “specificity constant kcat/KM relative to that of HsQC” value (PgQC [9]) was ~9%, the Km (PgQC [9]; pH 8.0, 30 °C) was 510 ± 13 µM and the kcat (PgQC [9]; pH 8.0, 30 °C) was 4.71 ± 0.22 s⁻¹. The “KM value higher compared with HsQC” value (TfQC [10]) was ~20 fold, the “specificity constant kcat/KM relative to that of HsQC” value (TfQC [10]) was “approximately 4%” and the Km (TfQC [10]; pH 8.0, 30 °C) was 1090 ± 30 µM. For the same molecule, the kcat (TfQC [10]; pH 8.0, 30 °C) was 4.49 ± 0.22 s⁻¹, the Km (HsQC [11]) was 54 ± 2 µM and the kcat (HsQC [11]) was 5.3 ± 0.1 s⁻¹.

`c1c[nH]cn1` [Imidazole, imidazole] showed a Ki (PgQC [4]; [17]) of 349 ± 23 µM, a Ki (PiQC [5]) of 288 ± 11 µM and a Ki (TfQC [6]) of 280 ± 15 µM.

In the case of `O=C(O)c1cccc(C(=O)O)n1` [dipicolinic acid], the “Effect of chelator on QC activity” value (PiQC [1]) is reported as “strong inhibitory activity”, the “Effect of chelator on QC activity” value (TfQC [2]) is reported as “strong inhibitory activity” and the “Effect of chelator on QC activity” value (PgQC [3]) is reported as “strong inhibitory activity”.

B1: PgQC (Porphyromonas gingivalis W83) (protein)
chain: NGNNTSETQGDRTEQAETVQADLFSADSAYTFVQRQVNFGPRIPGTAPHRACGDWLVATLRSFGAAVQEQTAEIKAHDGTMLPMRNIIASYRPEATGRMLLMAHWDTRPVCDQDANPAMHTETFDGADDGGSGVGVLLEIARYLGQQKDLGMGIDIVFFDTEDYGSYGDDESWCLGSQYWSRNPHVAGYKAEAGILLDMVGAKGATFYWEYFSKSYAPGLISAVWQTAAALGYGNYFIQADGGALTDDHVPVIKNLGIPCIDIINYSSKNEHGFGDHWHTQRDNMQIIDKNVLDAVGETVIRYLDEQVKAASH
With B1 the kcat/Km [12] was 18600 ± 100 M⁻¹ s⁻¹, the kcat/Km [13] was 12500 ± 1900 M⁻¹ s⁻¹ and the kcat/Km [14] was 4300 ± 100 M⁻¹ s⁻¹. For the same molecule, the Km [15] was 492.5 ± 26 µM, the kcat [15] was 7 ± 0.66 s⁻¹ and the kcat/Km [15] was 14300 ± 600 M⁻¹ s⁻¹. It also gave a Km [16] of 203.7 ± 5.1 µM, a kcat [16] of 13.3 ± 1.6 s⁻¹ and a kcat/Km [16] of 65100 ± 6000 M⁻¹ s⁻¹.
